Results reported in US20090088432A1, “Thiazolinones and Oxazolinones and their Use as Ptp1b Inhibitors” (priority 2005, published 2009).

Molecular target: T1, Recombinant human Protein-tyrosine phosphatase1B (PTP1B) (Homo sapiens, UniProt P18031)
T1 construct: Recombinant human Protein-tyrosine phosphatase1B (PTP1B) (amino acid 1-322 Biomol, USA); purchased Biomol, USA
T1 sequence (P18031 1-322): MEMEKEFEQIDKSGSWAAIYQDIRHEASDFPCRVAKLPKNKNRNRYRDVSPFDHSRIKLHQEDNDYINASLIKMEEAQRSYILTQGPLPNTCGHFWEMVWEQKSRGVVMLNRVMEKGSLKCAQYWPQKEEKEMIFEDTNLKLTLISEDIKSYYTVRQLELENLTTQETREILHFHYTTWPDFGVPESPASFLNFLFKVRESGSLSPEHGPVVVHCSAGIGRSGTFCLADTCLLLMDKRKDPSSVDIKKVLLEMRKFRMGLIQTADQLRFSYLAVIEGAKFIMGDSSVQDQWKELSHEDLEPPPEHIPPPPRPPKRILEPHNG
Assay: PTP1B enzyme inhibition assay (pNpp substrate)
Type: biochemical
Conditions: inhibition of recombinant human PTP1B, pNpp 5 mM, 30 mins at 25° C; inhibitor concentration not given
Description: Protein tyrosine phosphatase 1B (PTP1B) is an intracellular enzyme which functions by removing the phosphate groups from phosphorylated tyrosine residues of cellular proteins. PTP1B has been implicated as a negative regulator of insulin action and therefore is of therapeutic interest. The ability of the test compounds to inhibit the activity of PTP1B is determined using an enzyme inhibition assay.
The assay is performed using two independent substrates of PTP1B namely, p-nitrophenyl phosphate (pNpp) and the phosphorylated Epidermal growth factor receptor peptide (EGFR).
In the assay performed with pNpp, the action of PTP1B results in the release of p-nitrophenol, which is yellow in colour and can be measured at 410 nm. In the case of the assay using EGFR, action of PTP1B results in the release of free phosphate group. This is trapped using a reagent containing ammonium molybdate and malachite green resulting in a colored complex whose absorbance can be measured at 620 nm.
1× Assay buffer 50 mM HEPES (pH 7.4) • 1 mM EDTA • 1 mM DTT • 0.05% Igepal® CA-630
Dilute recombinant Human PTP1B 1:150 in 1× Assay buffer for 10× stock,
Prepare 10× stock of pNpp (50 mM) in 1× Assay buffer
Prepare 100× stock in 100% DMSO, dilute 1:10 with 1× Assay buffer to get 10× stock in 10% DMSO.
PTP1B inhibition assay was performed using recombinant human PTP1B. PTP1B (0.016 μg/well) was incubated in a buffer containing 50 mM HEPES, 1 mM DTT, 1 mM EDTA and 0.05% Igepal® CA-630 with or without inhibitor (10× stock, final DMSO concentration is 1%) for 30 mins at 25° C. This was followed by addition of p-Nitrophenyl phosphate (pNpp) substrate (5 mM). The final volume of the reaction mixture is 50 μL and experiment was done in 96 well half area plate. The incubation was continued for 30 mins at 25° C. The conversion of pNpp to p-Nitrophenol (pNp) was measured at 410 nm in Spectramaxplus Spectrophotometer (Molecular Devices, USA).

Structure (SMILES)	Activity Score
CC(C(=O)O)c1ccc(NC2=NC(=O)C(=Cc3ccc(-c4ccccc4)cc3)S2)cc1 (centres unmarked) [Compound 54, 2-[4-(5-Biphenyl-4-ylmethylene-4-oxo-4,5-dihydro-thiazol-2-ylamino)-phenyl]-propionic acid]	(+++) (+++ = >50% inhibition)
O=C(O)CC(C(=O)O)c1ccc(NC2=NC(=O)C(=Cc3ccc(-c4ccccc4)cc3)S2)cc1 (centres unmarked) [Compound 55, 2-[4-(5-Biphenyl-4-ylmethylene-4-oxo-4,5-dihydro-thiazol-2-ylamino)-phenyl]-succinic acid]	(++) (++ = 20-50% inhibition)
COc1cc(C=C2SC(Nc3ccc(CC(=O)O)cc3)=NC2=O)cc(OC)c1O [Compound 56, {4-[c-(4-hydroxy-3,5-dimethoxy-benzylidene)-4-oxo-4,5-dihydro-thiazol-2-ylamino]-phenyl}-acetic acid]	(+) (+ = 10-20% inhibition)
COc1cc(C=C2SC(Nc3ccc(CC(=O)O)cc3)=NC2=O)cc(OC)c1OC [Compound 59, {4-[4-Oxo-5-(3,4,5-trimethoxy-benzylidene)-4,5-dihydro-thiazol-2-ylamino]-phenyl}-acetic acid]	(+++) (+++ = >50% inhibition)
O=C(O)Cc1ccc(NC2=NC(=O)C(=Cc3cccn3-c3ccc(Br)cc3)S2)cc1 [Compound 60, (4-{5-[1-(4-Bromo-phenyl)-1H-pyrrol-2-ylmethylene]-4-oxo-4,5-dihydro-thiazol-2-ylamino}-phenyl)-acetic acid]	(++) (++ = 20-50% inhibition)
CC(=C1SC(Nc2ccc(CC(=O)O)cc2)=NC1=O)c1cccc(-n2cccc2)c1 [Compound 61, (4-{4-Oxo-5-[1-(3-pyrrol-1-yl-phenyl)-ethylidene]-4,5-dihydro-thiazol-2-ylamino}-phenyl)-acetic acid]	(+) (+ = 10-20% inhibition)
O=C(O)Cc1ccc(NC2=NC(=O)C(=Cc3ccc(C(F)(F)F)cc3)S2)cc1 [Compound 72, {4-[4-Oxo-5-(4-trifluoro methyl-benzylidene)-4,5-dihydro-thiazol-2-ylamino]-phenyl}-acetic acid]	(+) (+ = 10-20% inhibition)
O=C(O)Cc1ccc(NC2=NC(=O)C(=Cc3cccc(-n4cncn4)c3)S2)cc1 [Compound 87, {4-[4-Oxo-5-(3-[1,2,4]triazol-1-yl-benzylidene)-4,5-dihydro-thiazol-2-ylamino]-phenyl}-acetic acid]	(+) (+ = 10-20% inhibition)
O=C(O)Cc1ccc(NC2=NC(=O)C(=Cc3cccc(N4CCN(c5ccccn5)CC4)c3)S2)cc1 [Compound 90, (4-{4-Oxo-5-[3-(4-pyridin-2-yl-piperazin-1-yl)-benzylidene]-4,5-dihydro-thiazol-2-ylamino}-phenyl)-acetic acid]	(+++) (+++ = >50% inhibition)
O=C(O)Cc1ccc(NC2=NC(=O)C(=Cc3cccc(-n4cccn4)c3)S2)cc1 [Compound 91, {4-[4-Oxo-5-(3-pyrazol-1-yl-benzylidene)-4,5-dihydro-thiazol-2-ylamino]-phenyl}-acetic acid]	(++) (++ = 20-50% inhibition)
O=C(O)Cc1ccc(NC2=NC(=O)C(=Cc3ccc(-c4ccccc4)cc3)O2)cc1 [Compound 100, [4-(5-Biphenyl-4-ylmethylene-4-oxo-4,5-dihydro-oxazol-2-ylamino)-phenyl]-acetic acid]	(++) (++ = 20-50% inhibition)
O=C(Cc1ccc(NC2=NC(=O)C(=Cc3ccc(-n4cccn4)cc3)S2)cc1)NS(=O)(=O)c1ccccc1 [Compound 103, N-(2-{4-[4-Oxo-5-(4-pyrazol-1-yl-benzylidene)-4,5-dihydro-thiazol-2-ylamino]-phenyl}-acetyl)-benzenesulfonamide]	(+) (+ = 10-20% inhibition)

Now from value to compound:

Activity Score	Structure (SMILES)
(++) (++ = 20-50% inhibition)	O=C(O)CCc1ccc(NC2=NC(=O)C(=Cc3cc4ccccc4cc3OCc3ccccc3)S2)cc1 [Compound 49, 3-{4-[5-(3-Benzyloxy-naphthalen-2-ylmethylene)-4-oxo-4,5-dihydro-thiazol-2-ylamino]-phenyl}-propionic acid]
(+++) (+++ = >50% inhibition)	O=C(O)Cc1ccc(NC2=NC(=O)C(=Cc3cccc(N4C(=O)c5ccccc5C4=O)c3)S2)cc1 [Compound 50, (4-{5-[3-(1,3-Dioxo-1,3-dihydro-isoindol-2-yl)-benzylidene]-4-oxo-4,5-dihydro-thiazol-2-ylamino}-phenyl)-acetic acid]
(+++) (+++ = >50% inhibition)	O=C(O)Cc1ccc(NC2=NC(=O)C(=Cc3cccc(-n4cccc4)c3)S2)cc1 [Compound 51, {4-[4-Oxo-5-(3-pyrrol-1-yl-benzylidene)-4,5-dihydro-thiazol-2-ylamino]-phenyl}-acetic acid]
(++) (++ = 20-50% inhibition)	CC(C(=O)O)c1ccc(NC2=NC(=O)C(=Cc3ccc4ccccc4c3)S2)cc1 (centres unmarked) [Compound 53, 2-[4-(5-Naphthalen-2-yl-ethylene-4-oxo-4,5-dihydro-thiazol-2-ylamino)-phenyl]-propionic acid]
(+++) (+++ = >50% inhibition)	O=C(O)Cc1ccc(NC2=NC(=O)C(=Cc3cccn3-c3ccccc3)S2)cc1 [Compound 62, {4-[4-Oxo-5-(1-phenyl-1H-pyrrol-2-ylmethylene)-4,5-dihydro-thiazol-2-ylamino]-phenyl}-acetic acid]
(++) (++ = 20-50% inhibition)	O=C1N=C(Nc2ccc(CC(C(=O)O)C(=O)O)cc2)SC1=Cc1ccc(-c2ccccc2)cc1 [Compound 67, 2-[4-(5-Biphenyl-4-ylmethylene-4-oxo-4,5-dihydro-thiazol-2-ylamino)-benzyl]-malonic acid]
(+++) (+++ = >50% inhibition)	O=C(O)Cc1ccc(NC2=NC(=O)C(=Cc3coc4ccccc4c3=O)S2)cc1 [Compound 71, {4-[4-oxo-5-(4-oxo-4H-chromen-3-ylmethylene)-4,5-dihydro-thiazol-2-ylamino]-phenyl}-acetic acid]
(+++) (+++ = >50% inhibition)	CCC(C(=O)[O-])c1ccc(NC2=NC(=O)C(=Cc3cc4ccccc4cc3OCc3ccccc3)S2)cc1.[Na+] [Compound 84, 2-{4-[L-(3-Benzyloxy-naphthalen-2-ylmethylene)-4-oxo-4,5-dihydro-thiazol-2-ylamino]-phenyl}-sodium butyrate]
(+++) (+++ = >50% inhibition)	O=C(O)Cc1ccc(NC2=NC(=O)C(=Cc3cc4ccccc4cc3OCc3ccc(F)cc3)S2)cc1 [Compound 85, (4-{5-[3-(4-Fluoro-benzyloxy)-naphthalen-2-ylmethylene]-4-oxo-4,5-dihydro-thiazol-2-ylamino}-phenyl)-acetic acid]
(+++) (+++ = >50% inhibition)	O=C(O)Cc1ccc(NC2=NC(=O)C(=Cc3cccc(-n4cnc5ccccc54)c3)S2)cc1 [Compound 88, {4-[5-(3-Benzoimidazol-1-yl-benzylidene)-4-oxo-4,5-dihydro-thiazol-2-ylamino]-phenyl}-acetic acid]
(+) (+ = 10-20% inhibition)	O=C([O-])CCc1ccc(NC2=NC(=O)C(=Cc3ccc4ccccc4c3)S2)cc1.[Na+] [Compound 89, 3-[4-(5-Naphthalen-2-ylmethylene-4-oxo-4,5-dihydro-thiazol-2-ylamino)-phenyl]-sodium propionate]
(+) (+ = 10-20% inhibition)	O=C(O)Cc1ccc(NC2=NC(=O)C(=Cc3ccc(-c4ccccc4)cc3)S2)cc1 [Compound 94, [4-(5-Biplenyl-4-ylmethylene-4-oxo-4,5-dihydro-thiazol-2-ylamino)-phenyl]-acetic acid]
(+++) (+++ = >50% inhibition)	O=C([O-])CCc1ccc(NC2=NC(=O)C(=Cc3cc4ccccc4cc3OCc3ccccc3)S2)cc1.[Na+] [Compound 96, 3-{4-[5-(3-Benzyloxy-naphthalen-2-ylmethylene)-4-oxo-4,5-dihydro-thiazol-2-lamino]-phenyl}-sodium propionate]
(++) (++ = 20-50% inhibition)	Cc1ccc(S(=O)(=O)NC(=O)Cc2ccc(NC3=NC(=O)C(=Cc4cc5ccccc5cc4OCc4ccccc4)S3)cc2)cc1.[Na] [Compound 104, N-(2-{4-[5-(3-Benzyloxy-naphthalen-2-ylmethylene)-4-oxo-4,5-dihydro-thiazol-2-ylamino]-phenyl}-acetyl)-4-methyl-benzenesulfonamide sodium salt]
